How the values were obtained:
[1] = system: voltage-gated Na+ channels; format: cell-based, human
[2] = system: undifferentiated C4 cells (human iPSCs); test: Quercetin treatment of undifferentiated hiPSCs (Trypan blue, hemocytometer); format: cell-based
Method: To test the effect of Quercetin on human iPSC removal, human iPSCs were plated on 6 well plates. Cells were treated with each concentration of Quercetin (5, 10, 20, 40, and 100 μM) for 2, 6, 16, and 24 hours. After each time point, Quercetin containing medium was replaced with fresh medium and cells cultured for 48 hours from the initial Quercetin treatment time. Cells were dissociated using TrypLE and cell viability was measured using Trypan blue exclusion and hemocytometer.
The most critical issue for hPSC-based cell therapy is to establish safety by removing residual undifferentiated cells with neoplastic potential. Based on the previous finding that BIRC5 (encoding survivin) is highly expressed in hPSCs compared to somatic cells (40), we hypothesized that chemical inhibition of survivin would selectively eliminate remaining undifferentiated hiPSCs. However, since survivin is known to be important for neuronal precursors (41, 42), it is important to test whether this strategy interferes with mDAP generation. Among survivin inhibitors (40), we chose the flavonoid quercetin (3,3′,4′,5,7-pentahydroxyflavone) because this natural compound is present at high concentration in commonly consumed vegetables and fruits (43). We first treated 100,000 undifferentiated C4 cells with 5, 10, 20, 40, and 100 μM quercetin for 2, 6, 16, and 24 hours. […]

[3] = system: D9 C4 cells (mostly neuronal precursors); test: Quercetin treatment of D9 differentiating cells, outcome on D11; format: cell-based, human; settings: different concentrations (5-100 μM) for 16 hours on D9
Excerpt: The most critical issue for hPSC-based cell therapy is to establish safety by removing residual undifferentiated cells with neoplastic potential. Based on the previous finding that BIRC5 (encoding survivin) is highly expressed in hPSCs compared to somatic cells (40), we hypothesized that chemical inhibition of survivin would selectively eliminate remaining undifferentiated hiPSCs. However, since survivin is known to be important for neuronal precursors (41, 42), it is important to test whether this strategy interferes with mDAP generation. Among survivin inhibitors (40), we chose the flavonoid quercetin (3,3′,4′,5,7-pentahydroxyflavone) because this natural compound is present at high concentration in commonly consumed vegetables and fruits (43). We first treated 100,000 undifferentiated C4 cells with 5, 10, 20, 40, and 100 μM quercetin for 2, 6, 16, and 24 hours. After washing with fresh media, cells were further cultured for a total of 48 hours. […] To test whether quercetin affects survival of mDAPs, we treated D9 C4 cells (mostly neuronal precursors) with different concentrations of quercetin for 16 hours and examined outcome on D11.

[4] = system: undifferentiated C4 cells; test: Colony forming assay (AP staining) of C4 cells diluted among hDFs; format: cell-based, human
Method: (§1) For colony forming assay, each cell dilution was cultured for 6 days in E8 medium and pluripotent colonies were identified by AP staining. For the quercetin removal of undifferentiated cells, cells were treated with 40 μM quercetin for 16 hours and cultured in fresh E8 medium. For fluorescence activated cell sorting (FACS), C4 cells were dissociated using TrypLE and filtered through a 70 μm cell strainer. Single cell suspensions were first fixed with 4% formaldehyde for 10 mins and suspended in permeabilization buffer for 15 min on ice. After blocking for 30 min, cells were incubated with primary labeled antibodies (PE conjugated anti SSEA-4, TRA-1-60) for 1 hour on ice in the dark. After washing with PBS with 1% FBS, FACS analysis was performed using a BD Accuri C6 system (BD Bioscience) and data analyses were carried out according to manufacturer's instructions. Fluorochrome matched isotype controls were used and subtracted during analysis. For qRT-PCR assay, total RNA from all dilutions was extracted and subjected to qRT-PCR to determine OCT4 cycle times (Ct) value. OCT4 copy numbers were calculated from the equation curve that was generated from qRT-PCR of purified OCT4 partial sequence. Then, OCT4 copy numbers were plotted against PSC numbers.

[5] = system: undifferentiated C4 cells; test: OCT4 qRT-PCR assay for undifferentiated cells; format: cell-based, human; settings: D14, D21 and D28 after quercetin treatment (40 μM at D9 for 16 hours)
Method: as §1

[6] = system: NANOG+ undifferentiated cells; test: NANOG immunostaining of D14 cells; format: cell-based, human; settings: D14, with quercetin treatment
Method: hiPSC derived dopaminergic neurons were washed with phosphate-buffered saline (PBS) (with Ca^2+ and Mg^2+) and fixed with 4% formaldehyde in PBS (pH 7.4) for 10 mins. Cells were incubated for 1 hr in blocking solution (0.3% Triton X-100 and 1% horse serum in PBS) at room temperature. Cells were incubated with primary antibodies in PBS containing 0.3% Triton X-100 and 1% horse serum overnight. Cells were then incubated with the proper fluorescence-conjugated secondary antibodies with Hoechst 33342 for nuclei staining at room temperature for 1 hr. Cell images were obtained by confocal microscopy (KEYENCE, Osaka, Japan). Data regarding specific cell populations were determined from microscopic images using ImageJ software (11). To measure apoptotic cells, cells were stained for cleaved caspase 3, an apoptotic marker, and Hoechst 33342, a DNA-binding nuclear dye. After staining with Hoechst 33342, compacted chromatin is brighter than in normal cells, and the condensed nuclei were counted by fluorescence microscopy. Data regarding specific cell populations were determined from microscopic images by ImageJ software.

[7] = system: undifferentiated iPSCs; test: Residual undifferentiated iPSCs in final cell product (immunostaining and real-time PCR); format: cell-based, human; settings: final cell products at day 28 after quercetin
Excerpt: After treatment with quercetin, the final cell products (at day 28) had no detectable remaining undifferentiated iPSCs (with an upper boundary of the 95% confidence interval of <1 undifferentiated cell per 1 billion day-28 differentiated cells), on the basis of immunostaining and real-time polymerase chain reaction-based assays. Serotonergic neurons, a potential cause of graft-induced dyskinesia (Olanow et al. Ann Neurol 2003; 54:403-14), were not detected in the final product.

| Structure (SMILES) | transient inward currents evoked by voltage pulses from −70 mV to +40 mV [1] | efficiency of elimination of undifferentiated hiPSCs [2] | viable cells ([2]; 100,000 undifferentiated C4 cells, >20 μM quercetin for >16 hours, cultured for a total of 48 hours) | cell viability and cell number at D11 [3] | AP+ colonies ([4]; 40 μM quercetin for 16 hours, up to 10^5 hiPSCs plated, 6 days culture) | efficacy of quercetin treatment ([4]; colony forming assay) | calculated number of undifferentiated cells [5] | NANOG+ cells [6] | remaining undifferentiated iPSCs, upper boundary of the 95% confidence interval [7] |
| --- | --- | --- | --- | --- | --- | --- | --- | --- | --- |
| NC1=N[C@H](O)[C@H]2[C@H]3O[C@]4(O)O[C@@H]([C@@H](O)[C@@]2(N1)[C@@H]4O)[C@]3(O)CO [TTX, tetrodotoxin] | completely blocked | – | – | – | – | – | – | – | – |
| O=c1c(O)c(-c2ccc(O)c(O)c2)oc2cc(O)cc(O)c12 [quercetin, 3,3′,4′,5,7-pentahydroxyflavone] | – | > 99.99% | undetectable | Neither cell viability nor number was affected | no AP′ colonies detected | > 99.99% | less than 1 cell per 100,000 cells | none were detected | < 1 undifferentiated cell per 1 billion day-28 differentiated cells |
